Measured values reported in patent EP4775582A1, “MACROCYCLIC COMPOUND AND ANTIBODY-DRUG CONJUGATE THEREOF” (Genfleet Therapeutics (Shanghai) Inc., priority 2023, dated 2025).
Where two headings read alike, the source gives them in different places.

Tests used:
KRAS WT-cRAF = KRAS WT-cRAF (Homo sapiens, UniProt P01116+P62937); test: Assay for binding of KRAS to cRAF (HTRF, with Cyclophilin A), KRAS WT
Experimental: (§2) The plate was centrifuged at 1000 rpm for 1 min and then incubated in the thermostatic incubator at 20 °C for 30 min. […] The plate was centrifuged at 1000 rpm for 1 min and then incubated in the thermostatic incubator at 20 °C for 60 min. […] The working solution was added to the aforementioned assay plate at 5 µL/well. The plate was centrifuged at 1000 rpm for 1 min and then incubated in the thermostatic incubator at 20 °C for 60 min.

KRAS G12V-cRAF = KRAS G12V-cRAF (Homo sapiens, UniProt P01116+P62937, G12V); test: Assay for binding of KRAS to cRAF (HTRF, with Cyclophilin A), KRAS G12V
Sequence of KRAS G12V-cRAF (P01116 1-188 isoform P01116-2 G12V): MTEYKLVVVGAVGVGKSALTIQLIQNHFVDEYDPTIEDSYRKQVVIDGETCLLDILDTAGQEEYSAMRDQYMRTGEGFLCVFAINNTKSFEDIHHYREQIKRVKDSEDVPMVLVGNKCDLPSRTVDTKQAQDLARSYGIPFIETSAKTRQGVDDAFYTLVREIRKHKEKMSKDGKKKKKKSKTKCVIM
Sequence of KRAS G12V-cRAF (P62937 whole entry): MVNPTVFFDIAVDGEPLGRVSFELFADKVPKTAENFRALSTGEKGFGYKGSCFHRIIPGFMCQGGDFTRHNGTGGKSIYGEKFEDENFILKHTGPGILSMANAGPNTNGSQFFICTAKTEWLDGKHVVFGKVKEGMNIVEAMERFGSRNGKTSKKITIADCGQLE
Experimental: as §2

AsPC-1 p-ERK = test: Cell p-ERK assay (HTRF), AsPC-1 cells; type: cell-based, human; conditions: Homo sapiens, ASPC1; AsPC-1 cells (KRAS G12D), 3 h incubation; read-out: AsPC-1 p-ERK IC50
Summary of the method: (§1)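 Phospho-ERK (T202/Y204) was measured by HTRF in lysates after 3 h compound treatment at 37 °C. Cells had been plated the previous day at 20000 per well for NCI-H441 and 10000 per well for AsPC-1. Four-parameter dose-response fitting of % inhibition gave IC50 values.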

H441 p-ERK = test: Cell p-ERK assay (HTRF), NCI-H441 cells; type: cell-based, human; conditions: Homo sapiens; NCI-H441 cells (KRAS G12V), 3 h incubation
Summary of the method: as §1

[1] = KRAS WT-cRAF binding assay(nM), GPPNP-KRAS WT, IC50 values
[2] = KRAS G12V-cRAF binding assay(nM), GPPNP-KRAS G12V, IC50 values

Sequence of KRAS WT-cRAF (P01116 1-188 isoform P01116-2): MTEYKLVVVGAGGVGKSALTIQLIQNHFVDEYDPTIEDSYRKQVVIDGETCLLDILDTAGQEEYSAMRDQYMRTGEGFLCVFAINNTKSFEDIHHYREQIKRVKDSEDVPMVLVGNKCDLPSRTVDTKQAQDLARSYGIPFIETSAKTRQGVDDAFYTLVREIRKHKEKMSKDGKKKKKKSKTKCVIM
Sequence of KRAS WT-cRAF (P62937 whole entry): as the sequence (P62937 whole entry) above

CCn1c(-c2cc(C#CCN3CCC(C#N)CC3)cnc2C(C)OC)c2c3cc(ccc31)-c1coc(n1)CC(NC(=O)C1C(C)C1C)C(=O)N1CCCC(N1)C(=O)OCC(C)(C)C2 (atropisomer, axis not shown; (Ra)) [Compound Z155, (1r,2R,3S)-N-((6^3S,4S,Z)-(Ra)^2-(5-(3-(4-cyanopiperidin-1-yl)prop-1-yn-1-yl)-2-((S)-1-methoxyethyl)pyridin-3-yl)-1^1-ethyl-10,10-dimethyl-5,7-dioxo-6^1,6^2,6^3,6^4,6^5,6^6-hexahydro-1^1H-8-oxa-2(4,2)-oxazola-1(5,3)-indola-6(1,3)-pyridazinacycloundecaphan-4-yl)-2,3-dimethylcyclopropanecarboxamide]
IC50 (KRAS WT-cRAF; [1]): 18.7 nM
IC50 (KRAS G12V-cRAF; [2]): 8.29 nM

CCn1c(-c2cc(C#CCN3CCC(C#N)(CO)CC3)cnc2[C@H](C)OC)c2c3cc(ccc31)-c1csc(n1)C[C@H](NC(=O)[C@H]1[C@@H]3COC[C@@H]31)C(=O)N1CCC[C@H](N1)C(=O)OCC(C)(C)C2 (atropisomer, axis not shown) [Compound Z39]
IC50 (KRAS WT-cRAF; read-out: KRAS WT-cRAF binding assay, GPPNP-KRAS WT, IC50 values): 22.1 nM
IC50 (KRAS G12V-cRAF; read-out: KRAS G12V-cRAF binding assay, GPPNP-KRAS G12V, IC50 values): 9.1 nM

CCn1c(-c2cc(C#CCN3CCC(C#N)CC3)cnc2C(C)OC)c2c3cc(ccc31)-c1coc(n1)CC(NC(=O)C1C3COCC31)C(=O)N1CCCC(N1)C(=O)OCC(C)(C)C2 (atropisomer, axis not shown; (Ra)) [Compound Z168, (1R,5S,6r)-N-((6^3S,4S,Z)-(Ra)-1^2-(5-(3-(4-cyanopiperidin-1-yl)prop-1-yn-1-yl)-2-((S)-1-methoxyethyl)-pyridin-3-yl)-1^1-ethyl-10,10-dimethyl-5,7-dioxo-6^1,6^2,6^3,6^4,6^5,6^6-hexahydro-1^1H-8-oxa-2(4,2)-oxazola-1(5,3)-indola-6(1,3)-pyridazinacycloundecaphane-4-yl)-3-oxabicyclo[3.1.0]hexane-6-carboxamide]
IC50 (AsPC-1 p-ERK): 0.03 nM
IC50 (KRAS WT-cRAF; [1]): 16.4 nM
IC50 (H441 p-ERK): 0.09 nM
IC50 (KRAS G12V-cRAF; [2]): 7.75 nM

CCn1c(-c2cc(C#CCN3CCS(=O)(=O)CC3)cnc2C(C)OC)c2c3cc(ccc31)-c1csc(n1)CC(NC(=O)C1C(C)C1C(=O)NCCO)C(=O)N1CCCC(N1)C(=O)OCC(C)(C)C2 (atropisomer, axis not shown; (Ra)) [Compound Z13-2, (1S,2S,3R)-N^1-((6^3S,4S,Z)-(Ra)-1^2-(5-(3-(1,1-dioxidothiomorpholino)prop-1-yn-1-yl)-2-((S)-1-methoxyethyl)pyridin-3-yl)-1^1-ethyl-10,10-dimethyl-5,7-dioxo-6^1,6^2,6^3,6^4,6^5,6^6-hexahydro-1^1H-8-oxa-2(4,2)-thiazola-1(5,3)-indola-6(1,3)-pyridazinacycloundecaphane-4-yl)-N^2-(2-hydroxyethyl)-3-methylcyclopropane-1,2-dicarboxamide]
IC50 (KRAS WT-cRAF; [1]): 22.6 nM
IC50 (KRAS G12V-cRAF; [2]): 5.1 nM
